# Reference: patent US20260355184A1, “SMALL MOLECULE DEGRADERS OF HIV-1 TAT PROTEIN” (priority 2022, published 2026)
# Read-outs that look alike come from different tables or passages of the source.
# Experiments:
# Flag-Tat = target: T1, Flag-Tat (Human immunodeficiency virus type 1 (HXB3 ISOLATE), UniProt P69698); experiment: Degradation assay: Flag-Tat in HEK293T cells, western blot; format: cell-based, HIV; conditions: for Flag-Tat degradation / steady state: HEK293T, western blot
# T1 construct: Tat 86 aa likely (9 lysines)
# Procedure: Next, the effect of the three leads on the alteration of Tat steady state levels was assessed. Tat expression from an integrated provirus, or from HIV acute infection is generally too low to be detected by western blot. Furthermore, antibodies against Tat are known for their lack of avidity. Tat degradation was thus assessed upon transfection. Flag-Tat or Flag-GFP were individually transfected into HEK293T and 24 hrs later, TT-44856, TT-44863 or TT-44881 were added to the culture, followed by Western blot 24 hrs later (dubbed “degradation assay”) (FIG. 5A). […] These cells were treated with TNFα (previously determined not be degraded by the three leads in FIG. 2D) in the presence of TT-44856, TT-44863 or TT-44881, followed by western blot with an anti-Flag antibody 17 hrs later. […] Finally, the leads' impact on recombinant Tat protein in HEK293T cells was assessed (FIG. 5D). HEK293T cells were incubated with recombinant Tat for 4 hrs to allow Tat internalization, followed by several thorough washes to remove unincorporated Tat. Cells were then incubated with all three leads (or Triptolide) for an additional 2 hrs. Cells were lysed and analyzed by western blot with an anti-Tat serum.
# Degradation of Tat has been reported in the literature in multiple ways, including the lysosomal pathway^23, the ubiquitin-independent 20S proteasomal pathway (due to its unfolded structure)^24,25, and the ubiquitin-dependent 26S proteasomal pathway^26. It was first assessed whether Tat was targeted to the lysosomal pathway by the lead compounds. HEK293T cells were transfected with Flag-Tat for 24 hrs, incubated with the compounds for an additional 24 hrs, then treated for 8 hrs with either 100 μM chloroquine or 50 mM NH4Cl, both known to inhibit lysosomal hydrolases by reducing acidification. […] Both the 20S and the 26S proteasomal pathways were next investigated using MG132, an inhibitor of the catalytic […] of 20S present in both pathways^27. The degradation assay was carried out as above, but compounds were simultaneously incubated with MG132 20 μM or DMSO for 17 hrs followed by western blot. In the presence of MG132, Tat degradation was rescued, but the rescue was higher in the presence of the lead compounds (FIG. 6B).
# Protein ubiquitination occurs by sequential recruitment of ubiquitin-activating enzyme E1, ubiquitin-conjugating enzyme E2, and ubiquitin ligase E3 (using ubiquitin, substrate protein, and ATP). The selectivity in protein ubiquitination is conferred by E3 ubiquitin ligases that recognize the substrate proteins^29 and the human genome contains more than 600 E3 ubiquitin ligases^29. To determine whether the small molecule leads trigger the 20S or the 26S proteasomal pathways, the Tat degradation assay was performed in the presence of commercially available E3 ligase inhibitors, including Lenalidomide a E3 ubiquitin ligase Cereblon inhibitor. Cereblon has not been previously reported to ubiquitinate Tat. The degradation assays were performed as above with Lenalidomide (40 μM) or DMSO incubation for 4 hrs in the presence of the lead molecules (FIG. 7A). […] To confirm the engagement of Cereblon in the mechanism of action of the lead compounds, shRNAs were used to stably knock down Cerebelon, or CD8 control, in HEK293T cells, and the degradation assay for TT-44856 was performed.
# The involvement of the ubiquitous VHL E3 ligase in the activity of TT-44881 inducing Tat degradation was also investigated. HEK293T cells overexpressing Tat protein and VHL siRNAs (or si control) were treated with either TT-44881 (60 μM) and DMSO or TT-44881 with a VHL PROTAC (CM11, 500 nM) for 24 hours. siRNAs and PROTACs were used together to maximize the depletion of both VHL isoforms (30 and 19 kDa).
# [1] = Cytotoxicity assay, Cell-Titer-Glo, HeLa-CD4-LTR-LacZ; conditions: human, hela-cd4-ltr-lacz cells, Infectivity CC50, HeLa-CD4-LTR-LacZ
# Method in brief: (§1)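 HeLa-CD4-LTR-LacZ reporter cells (β-Gal under HIV 5′ LTR) infected with HIV NL4.3; β-Gal activity read 72 h post infection, with parallel Cell-Titer-Glo viability. OM10.1 carry a single wild-type provirus; ACH-2 a single provirus with TAR C37T mutation, defective Tat-TAR feedback.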
# HIV NL4.3 strain = experiment: HIV infectivity assay, reporter cell line HeLa-CD4-LTR-LacZ, β-Gal activity (Tat protein inhibition); format: cell-based, HIV-1 (NL4.3)
# Method in brief: as §1
# HeLa-CD4-LTR-LacZ cells = experiment: Cytotoxicity assay, Cell-Titer-Glo, HeLa-CD4-LTR-LacZ; conditions: read-out: Infectivity CC50, HeLa-CD4-LTR-LacZ
# Method in brief: as §1
# recombinant Tat = target: T2, recombinant Tat (Human immunodeficiency virus type 1 (HXB3 ISOLATE), UniProt P69698); experiment: Recombinant Tat stability in HEK293T cells, western blot; format: cell-based, HIV; conditions: 4 hrs recombinant Tat then 2 hrs compound, n=1
# T2 construct: detected with anti-Tat serum
# Procedure: Next, the effect of the three leads on the alteration of Tat steady state levels was assessed. Tat expression from an integrated provirus, or from HIV acute infection is generally too low to be detected by western blot. Furthermore, antibodies against Tat are known for their lack of avidity. Tat degradation was thus assessed upon transfection. Flag-Tat or Flag-GFP were individually transfected into HEK293T and 24 hrs later, TT-44856, TT-44863 or TT-44881 were added to the culture, followed by Western blot 24 hrs later (dubbed “degradation assay”) (FIG. 5A). […] Finally, the leads' impact on recombinant Tat protein in HEK293T cells was assessed (FIG. 5D). HEK293T cells were incubated with recombinant Tat for 4 hrs to allow Tat internalization, followed by several thorough washes to remove unincorporated Tat. Cells were then incubated with all three leads (or Triptolide) for an additional 2 hrs. Cells were lysed and analyzed by western blot with an anti-Tat serum.
# [2] = tested on: TAR-SIIB promoter (Flag-Tat-Rev fusion protein); experiment: Flag-Tat-Rev fusion protein transactivation of TAR-SIIB promoter; format: cell-based, HIV-1; conditions: SIIB reporter HEK293T
# Procedure: FIG. 4. […] Shown is n=1. […] Shown is n=1. ARVs: antiretrovirals: 100 nM Efavirenz, 200 nM Lamivudine and 200 nM Raltegravir. C. […] SIIB: a reporter HEK293T stable cell line where the essential apical region of TAR was replaced by the 29-nucleotide stem-loop IIB (SIIB) subdomain of the HIV-1 RRE. A Tat-Rev fusion protein activates transcription of luciferase when Rev binds SIIB, bringing Tat and P-TEFb to RNAPII at the HIV promoter. Shown is mean±SEM of n=4.
# OM10.1 cells = experiment: Cell-associated HIV Gag mRNA expression / HIV transcription in latently infected OM10.1 cells; format: cell-based; conditions: 12-day treatment with ARVs
# Procedure: (§2) Next, the activity of these leads against HIV infection was evaluated using the reporter cell line HeLa-CD4-LTR-LacZ, which stably expresses the β-galactosidase (β-Gal) gene under the control of the HIV 5′ LTR. The HIV NL4.3 strain was used for these studies and β-Gal activity was measured 72 hrs post infection (FIG. 3A). Cytotoxicity assays using Cell-Titer-Glo were performed in parallel to assess cell viability (FIG. 3A). […] Their anti-HIV activity was further assessed in acute replication of Jurkat T cells with the NL4.3 strain (FIG. 3A). […] These OM10.1 cells contain a single integrated wild-type provirus, while ACH-2 cells contain a single integrated provirus with a TAR mutation C37T, defective Tat-TAR feedback loop (FIG. 3B).
# ACH-2 cells = experiment: Cell-associated HIV Gag mRNA expression / HIV transcription in latently infected ACH-2 cells; format: cell-based; conditions: ACH-2; 12-day treatment with ARVs
# Procedure: as §2
# [3] = tested on: TAR (Flag-Tat-Rev fusion protein); experiment: Flag-Tat-Rev fusion protein transactivation via TAR; format: cell-based, HIV-1; conditions: TAR reporter
# HIV = conditions: combined with ART; CD4+ T cells from infected individuals and humanized mouse model; cited from earlier work
# [4] = Human immunodeficiency virus 1, read-out: Infectivity IC50, HeLa-CD4-LTR-LacZ, analogs of TT-44881 (Table 1)
# [5] = Human immunodeficiency virus 1, read-out: Infectivity IC50, HeLa-CD4-LTR-LacZ, analogs of TT-44863 (Table 2)
# [6] = read-out: Infectivity IC50, HeLa-CD4-LTR-LacZ, analogs of TT-44856 (Table 3)
# [7] = Human immunodeficiency virus 1, read-out: Infectivity IC50, HeLa-CD4-LTR-LacZ, analogs of TT-44856 (Table 3)
# T1 sequence (P69698 whole entry): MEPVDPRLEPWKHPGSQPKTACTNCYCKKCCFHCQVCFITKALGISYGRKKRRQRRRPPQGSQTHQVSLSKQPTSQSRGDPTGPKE
# T2 sequence (P69698 whole entry): as above
structure (smiles),measurement,setting,value
CN(CCCN1CCCC1=O)C(=O)c1nn(-c2ccccc2)c2c1CCC2 [GB-04],Flag-Tat degradation / steady state,Flag-Tat,did not affect Flag-Tat steady state
same,CC50,[1]; analogs of TT-44881 (Table 1),> 100 µM
same,IC50,HIV NL4.3 strain; [4],> 100 µM
CC(C)(C)OC(=O)COCCOCCOc1ccc(C(F)(F)F)cc1NC(=O)Cn1cc(C(F)(F)F)cc(Cl)c1=O [compound 56],CC50,HeLa-CD4-LTR-LacZ cells; analogs of TT-44863 (Table 2),> 100 µM
same,IC50,"HIV NL4.3 strain; read-out: Infectivity IC50, HeLa-CD4-LTR-LacZ, analogs of TT-44863 (Table 2)",> 100 µM
O=C(NCCCN1CCCC1=O)c1nn(-c2ccccc2)c2c1CCCC2 [GB-02],CC50,HeLa-CD4-LTR-LacZ cells; analogs of TT-44881 (Table 1),> 100 µM
same,IC50,"HIV NL4.3 strain; read-out: Infectivity IC50, HeLa-CD4-LTR-LacZ, analogs of TT-44881 (Table 1)",50 to 100 µM
COc1ccc(C#N)cc1NC(=O)Cn1cccc(Cl)c1=O [TT-46766],Flag-Tat degradation / steady state,Flag-Tat,did not affect Flag-Tat steady state
same,CC50,[1]; analogs of TT-44863 (Table 2),> 100 µM
same,IC50,HIV NL4.3 strain; [5],> 100 µM
"CC(C)[C@]12O[C@H]1[C@@H]1O[C@]13[C@]1(O[C@H]1C[C@H]1C4=C(CC[C@@]13C)C(=O)OC4)[C@@H]2O [Triptolide, reference compound]",recombinant Tat degradation,recombinant Tat,degraded Tat as opposed to the DMSO control
same,Flag-Tat degradation / steady state,Flag-Tat,nonspecifically degraded Flag-Tat
same,effect of Lenalidomide on compound induced Flag-Tat degradation,"Flag-Tat; Lenalidomide 40 μM, 4 hrs","did not engage the 26S proteasomal pathway, but only the 20S proteasomal pathway"
same,Flag-Tat-Rev transactivation of TAR-SIIB,[2],inhibition of both TAR and TAR-SIIB
same,Gag mRNA / HIV transcription (in words),OM10.1 cells,reduced Gag mRNA in both cell lines
same,Gag mRNA / HIV transcription (in words),ACH-2 cells,reduced Gag mRNA in both cell lines
same,Flag-Tat-Rev / TAR,[3],inhibition of both TAR and TAR-SIIB
Cc1nccn1CCCNC(=O)C(C)(c1ccccc1)c1ccccc1 [3-53],CC50,HeLa-CD4-LTR-LacZ cells; analogs of TT-44856 (Table 3),50 to 100 µM
same,IC50,HIV NL4.3 strain; [6],1 to 10 µM
"CN(C)[C@H]1C[C@@]23CC[C@@]4(O2)C(=CC[C@]2(C)C(c5ccc6ccncc6c5)=CC[C@H]24)C=C3[C@@H](O)[C@@H]1O [dCA, didehydro-Cortistatin A, reference compound]",transcription and viral rebound with ART,HIV,inhibits transcription and blocks viral rebound upon treatment interruption
same,Gag mRNA / HIV transcription (in words),OM10.1 cells,only inhibited transcription in OM10.1 cells
same,Flag-Tat-Rev / TAR,[3],interfered with the Flag-Tat-Rev to TAR binding
O=C(NCCCn1ccnc1)c1n[nH]c2c1CCC2 [compound 46726],CC50,[1]; analogs of TT-44881 (Table 1),> 100 µM
same,IC50,HIV NL4.3 strain; [4],> 100 µM
O=C(NCCCn1ccnc1)c1cc2cccnc2[nH]1 [3-37],CC50,[1]; analogs of TT-44856 (Table 3),> 100 µM
same,IC50,HIV NL4.3 strain; [7],> 100 µM
O=C(NCCCN1CCCC1=O)c1c(-c2ccccc2)[nH]c2ccccc2c1=O [compound 46825],CC50,[1]; analogs of TT-44881 (Table 1),> 100 µM
same,IC50,HIV NL4.3 strain; [4],> 100 µM
O=C(NCCCn1ccnc1)C(c1ccccc1)c1ccccc1 [3-71],CC50,HeLa-CD4-LTR-LacZ cells; analogs of TT-44856 (Table 3),> 100 µM
same,IC50,HIV NL4.3 strain; [6],1 to 30 µM
COc1cc(C(F)(F)F)ccc1NC(=O)Cn1cccc(Cl)c1=O [compound 47171],CC50,[1]; analogs of TT-44863 (Table 2),> 100 µM
same,IC50,HIV NL4.3 strain; [5],> 100 µM
O=C(NCCCn1ccnc1)C(CCO)(c1ccccc1)c1ccccc1 [3-74],CC50,[1]; analogs of TT-44856 (Table 3),> 100 µM
same,IC50,HIV NL4.3 strain; [7],1 to 20 µM
CN1CCN(CCOc2ccc(C(F)(F)F)cc2NC(=O)Cn2cc(C(F)(F)F)cc(Cl)c2=O)CC1 [compound 52],CC50,[1]; analogs of TT-44863 (Table 2),25 to 50 µM
same,IC50,HIV NL4.3 strain; [5],10 to 20 µM
CC(C(=O)NCCc1ccc(C(F)(F)F)cc1)(c1ccccc1)c1ccccc1 [3-45],CC50,[1]; analogs of TT-44856 (Table 3),50 to 100 µM
same,IC50,HIV NL4.3 strain; [7],10 to 20 µM
